Here are results for eleven compounds from US11168073B2, “3,3-difluoroallylamines or salts thereof and pharmaceutical compositions comprising the same” (YUHAN CORPORATION, priority 2018, dated 2021).

A word on the IC50: it is the concentration at which inhibition is half-maximal.

Where a name gives a salt, the structure may show the parent alone. Read-outs that look alike come from different tables or passages of the source.

What all share (type): biochemical
For experiment [1], the target named is T1, recombinant human VAP-1 (Homo sapiens, UniProt Q16853).
T1 construct: purchased R&D systems
T1 sequence (Q16853 1-763): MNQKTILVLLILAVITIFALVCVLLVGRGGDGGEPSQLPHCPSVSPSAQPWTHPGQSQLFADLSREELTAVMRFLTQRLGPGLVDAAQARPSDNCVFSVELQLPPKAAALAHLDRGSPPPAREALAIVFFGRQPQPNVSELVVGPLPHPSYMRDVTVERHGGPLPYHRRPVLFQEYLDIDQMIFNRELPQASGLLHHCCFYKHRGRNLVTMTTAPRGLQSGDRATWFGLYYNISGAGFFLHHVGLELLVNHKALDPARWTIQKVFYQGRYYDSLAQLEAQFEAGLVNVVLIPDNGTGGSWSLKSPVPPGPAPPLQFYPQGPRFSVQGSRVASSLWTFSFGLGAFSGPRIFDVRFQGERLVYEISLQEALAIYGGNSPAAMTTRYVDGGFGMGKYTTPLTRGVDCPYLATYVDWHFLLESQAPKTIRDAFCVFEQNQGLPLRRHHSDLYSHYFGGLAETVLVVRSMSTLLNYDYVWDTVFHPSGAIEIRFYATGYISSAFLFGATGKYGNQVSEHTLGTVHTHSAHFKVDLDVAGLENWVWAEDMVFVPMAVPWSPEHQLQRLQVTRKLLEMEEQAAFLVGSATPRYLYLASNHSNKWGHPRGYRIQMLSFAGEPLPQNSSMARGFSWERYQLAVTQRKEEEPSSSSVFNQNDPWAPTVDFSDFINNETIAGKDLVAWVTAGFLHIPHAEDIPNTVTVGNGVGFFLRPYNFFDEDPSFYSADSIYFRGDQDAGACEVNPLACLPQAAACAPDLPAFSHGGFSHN
Briefly: Activity evaluation on recombinant human VAP-1 (Amplex Red/HRP-coupled hydrogen peroxide assay, benzylamine substrate). The conditions noted are these: read-out: Inhibitory Activity (IC50, nM) human VAP-1. Summed up:
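Hydrogen peroxide from benzylamine (1 mM) oxidation by human recombinant VAP-1 detected via HRP-coupled Amplex Red (200 uM) fluorescence, kinetic over 1–2 h. Enzyme and compound preincubated 30 min at 37 °C, pH 7.4 phosphate; 8-point dose response, signal-rate decrease versus DMSO control fitted to four-parameter logistic for IC50.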

Experiment [2] has as its target T2, recombinant human DAO (diamine oxidase) (Homo sapiens, UniProt P19801).
T2 construct: purchased R&D systems
T2 sequence (P19801 20-751): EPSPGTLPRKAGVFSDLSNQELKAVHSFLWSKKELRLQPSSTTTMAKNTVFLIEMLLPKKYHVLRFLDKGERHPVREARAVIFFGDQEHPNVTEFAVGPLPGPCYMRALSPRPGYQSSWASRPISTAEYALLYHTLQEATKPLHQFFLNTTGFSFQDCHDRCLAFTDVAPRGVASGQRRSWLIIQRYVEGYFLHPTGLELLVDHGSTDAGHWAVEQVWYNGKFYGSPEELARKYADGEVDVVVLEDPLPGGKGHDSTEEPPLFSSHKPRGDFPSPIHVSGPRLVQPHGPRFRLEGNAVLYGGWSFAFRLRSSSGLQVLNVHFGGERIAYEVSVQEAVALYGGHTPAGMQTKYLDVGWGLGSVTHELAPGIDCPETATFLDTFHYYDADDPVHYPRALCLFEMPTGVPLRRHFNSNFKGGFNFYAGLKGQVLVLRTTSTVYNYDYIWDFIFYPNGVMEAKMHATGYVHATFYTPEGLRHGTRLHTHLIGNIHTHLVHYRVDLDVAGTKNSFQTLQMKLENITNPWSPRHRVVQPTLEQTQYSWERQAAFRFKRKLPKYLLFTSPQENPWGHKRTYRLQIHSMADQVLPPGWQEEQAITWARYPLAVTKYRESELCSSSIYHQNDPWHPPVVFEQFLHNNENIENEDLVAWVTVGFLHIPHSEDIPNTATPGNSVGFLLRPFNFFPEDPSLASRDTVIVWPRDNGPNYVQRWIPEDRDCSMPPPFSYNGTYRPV
Briefly: Activity evaluation on recombinant human DAO (Amplex Red/HRP-coupled assay, 1 mM putrescine substrate). Particulars: read-out: Inhibitory Activity (IC50, nM) DAO. Summed up: (§1)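 Each oxidase is tested with its own substrate: MAO-A with 0.5 mM tyramine, MAO-B with 1 mM benzylamine, DAO with 1 mM putrescine. After 30 min enzyme-compound preincubation at 37 °C, Amplex Red (200 uM) plus HRP (1 U/mL) reports H2O2 as fluorescence; IC50 is fitted from eight-point curves.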

Experiment [3] addresses T3, recombinant human MAO-B (monoamine oxidase-B) (Homo sapiens, UniProt P27338).
T3 construct: purchased Sigma-Aldrich
T3 sequence (P27338 1-520): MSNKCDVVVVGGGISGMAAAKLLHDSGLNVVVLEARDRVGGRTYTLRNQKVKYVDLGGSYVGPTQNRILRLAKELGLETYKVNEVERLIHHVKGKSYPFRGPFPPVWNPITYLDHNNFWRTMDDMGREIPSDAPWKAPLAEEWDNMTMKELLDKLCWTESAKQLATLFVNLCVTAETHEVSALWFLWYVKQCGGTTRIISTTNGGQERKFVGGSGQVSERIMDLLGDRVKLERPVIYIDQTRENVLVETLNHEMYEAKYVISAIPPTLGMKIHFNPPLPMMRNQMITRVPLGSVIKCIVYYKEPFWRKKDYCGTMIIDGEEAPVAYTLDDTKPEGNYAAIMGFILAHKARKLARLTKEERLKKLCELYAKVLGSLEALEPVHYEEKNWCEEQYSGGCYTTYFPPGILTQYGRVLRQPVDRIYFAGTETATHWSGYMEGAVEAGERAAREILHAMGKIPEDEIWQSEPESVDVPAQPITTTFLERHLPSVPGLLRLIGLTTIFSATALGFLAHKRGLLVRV
Put plainly: Activity evaluation on recombinant human MAO-B (Amplex Red/HRP-coupled assay, 1 mM benzylamine substrate). The conditions noted are these: read-out: Inhibitory Activity (IC50, nM) MAO-B. The gist of the method:
as §1

Experiment [4] addresses T4, recombinant human MAO-A (monoamine oxidase-A) (Homo sapiens, UniProt P21397).
T4 construct: purchased Sigma-Aldrich
T4 sequence (P21397 1-527): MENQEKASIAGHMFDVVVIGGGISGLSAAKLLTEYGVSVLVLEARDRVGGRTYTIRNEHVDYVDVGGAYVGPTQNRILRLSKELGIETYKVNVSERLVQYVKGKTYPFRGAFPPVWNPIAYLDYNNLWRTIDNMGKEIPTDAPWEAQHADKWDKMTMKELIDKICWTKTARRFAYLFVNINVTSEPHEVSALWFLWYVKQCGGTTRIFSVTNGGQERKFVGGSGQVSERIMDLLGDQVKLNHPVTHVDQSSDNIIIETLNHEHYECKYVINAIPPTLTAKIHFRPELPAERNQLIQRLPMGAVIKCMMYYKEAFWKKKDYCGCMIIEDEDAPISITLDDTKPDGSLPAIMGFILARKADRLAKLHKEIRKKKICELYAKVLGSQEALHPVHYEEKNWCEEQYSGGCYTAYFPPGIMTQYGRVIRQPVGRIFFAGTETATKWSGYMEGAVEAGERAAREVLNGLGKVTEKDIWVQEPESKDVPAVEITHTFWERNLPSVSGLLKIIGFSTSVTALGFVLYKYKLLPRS
Put plainly: Activity evaluation on recombinant human MAO-A (Amplex Red/HRP-coupled assay, 0.5 mM tyramine substrate). Particulars: read-out: Inhibitory Activity (IC50, nM) MAO-A. Summed up:
as §1

The mark [5] stands for this setting: recombinant human VAP-1, 30 min preincubation at 37° C., 1 mM benzylamine.
Setting [6] is: recombinant human VAP-1, benzylamine substrate.

In the case of `CN(C)c1ccc(-c2cccc(-n3cnn(CC(CN)=C(F)F)c3=O)n2)cn1` [Example 49, 2-[2-(aminomethyl)-3,3-difluoro-allyl]-4-[6-[6-(dimethylamino)-3-pyridyl]-2-pyridyl]-1,2,4-triazol-3-one Trifluoroacetate], the IC50 in experiment [1] (setting [5]) is 1.6 nM; in experiment [2] (1 mM putrescine), 490 nM; in experiment [3] (1 mM benzylamine), > 100000 nM; in experiment [4] (0.5 mM tyramine) it was > 100000 nM.
`CN1Cc2cc(-c3ccc(Cn4cnn(CC(CN)=C(F)F)c4=O)s3)ccc2NC1=O` [Example 182, 6-[5-[[1-[2-(aminomethyl)-3,3-difluoro-allyl]-5-oxo-1,2,4-triazol-4-yl]methyl]-2-thienyl]-3-methyl-1,4-dihydroquinazolin-2-one Trifluoroacetate]: the IC50 in experiment [1] (setting [6]) was 0.2 nM; in experiment [2] (1 mM putrescine substrate), > 100000 nM; in experiment [3] (1 mM benzylamine substrate), > 100000 nM; in experiment [4] (0.5 mM tyramine substrate) it was > 100000 nM.
With `NCC(Cn1ncn(Cc2ccc(OCc3ccccc3)cc2)c1=O)=C(F)F` [Example 96, 2-[2-(aminomethyl)-3,3-difluoro-allyl]-4-[(4-benzyloxyphenyl)methyl]-1,2,4-triazol-3-one Trifluoroacetate], the concentration for half-maximal inhibition (IC50) is 13 nM in experiment [1] (setting [5]), > 100000 nM in experiment [2] (1 mM putrescine), 220 nM in experiment [3] (1 mM benzylamine) and > 100000 nM in experiment [4] (0.5 mM tyramine).
As for `CCn1cc(-c2cnc(-n3cnn(CC(CN)=C(F)F)c3=O)cn2)cn1` [Example 95, 2-[2-(aminomethyl)-3,3-difluoro-allyl]-4-[5-(1-ethylpyrazol-4-yl)pyrazin-2-yl]-1,2,4-triazol-3-one Trifluoroacetate], the half-maximal inhibitory concentration (IC50) is 0.6 nM in experiment [1] (setting [5]), 19 nM in experiment [2] (1 mM putrescine), 1300 nM in experiment [3] (1 mM benzylamine) and > 100000 nM in experiment [4] (0.5 mM tyramine).
Take `CS(=O)(=O)c1ccc(-c2cccc(Cn3cnn(CC(CN)=C(F)F)c3=O)c2)cc1` [Example 272, 2-[2-(aminomethyl)-3,3-difluoro-allyl]-4-[[3-(4-methylsulfonylphenyl)phenyl]methyl]-1,2,4-triazol-3-one Trifluoroacetate]: the IC50 in experiment [1] (setting [6]) was 3.2 nM; in experiment [2] (1 mM putrescine substrate), 4330 nM; in experiment [3] (1 mM benzylamine substrate), 23800 nM; in experiment [4] (0.5 mM tyramine substrate), > 100000 nM.
For the compound `NCC(Cn1ncn(-c2cc(-c3ccc(C(F)(F)F)nc3)ccn2)c1=O)=C(F)F` [Example 56, 2-[2-(aminomethyl)-3,3-difluoro-allyl]-4-[4-[6-(trifluoromethyl)-3-pyridyl]-2-pyridyl]-1,2,4-triazol-3-one Trifluoroacetate], the half-inhibitory concentration (IC50) in experiment [1] (setting [5]) was 1.6 nM; in experiment [2] (1 mM putrescine), 75 nM; in experiment [3] (1 mM benzylamine), 79600 nM; in experiment [4] (0.5 mM tyramine) it was > 100000 nM.
In the case of `Cc1cc(C#Cc2ccc(N(C)C)nc2)cnc1-n1cnn(CC(CN)=C(F)F)c1=O` [Example 241, 2-[2-(aminomethyl)-3,3-difluoro-allyl]-4-[5-[2-[6-(dimethylamino)-3-pyridyl]ethynyl]-3-methyl-2-pyridyl]-1,2,4-triazol-3-one Trifluoroacetate], the half-maximal inhibitory concentration (IC50) is 1.3 nM in experiment [1] (setting [6]), 25000 nM in experiment [2] (1 mM putrescine substrate), 6300 nM in experiment [3] (1 mM benzylamine substrate) and > 100000 nM in experiment [4] (0.5 mM tyramine substrate).
On the same counts, the results for `Cc1cc(-c2cnc3[nH]ccc3c2)cnc1-n1cnn(CC(CN)=C(F)F)c1=O` [Example 228, 2-[2-(aminomethyl)-3,3-difluoro-allyl]-4-[3-methyl-5-(1H-pyrrolo[2,3-b]pyridin-5-yl)-2-pyridyl]-1,2,4-triazol-3-one Trifluoroacetate] are 0.6 nM, 7700 nM, 3300 nM and > 100000 nM.
On the same counts, the results for `NCC(Cn1ncn(Cc2cc(-c3cc(F)c4[nH]c(=O)ccc4c3)cs2)c1=O)=C(F)F` [Example 189, 6-[5-[[1-[2-(aminomethyl)-3,3-difluoro-allyl]-5-oxo-1,2,4-triazol-4-yl]methyl]-3-thienyl]-8-fluoro-1H-quinolin-2-one Trifluoroacetate] are 0.5 nM, 23000 nM, > 100000 nM and > 100000 nM.
`CN(C)c1ccc(-c2ccc(Cn3cnn(CC(CN)=C(F)F)c3=O)cc2)cn1` [Example 267, 2-[2-(aminomethyl)-3,3-difluoro-allyl]-4-[[4-[6-(dimethylamino)-3-pyridyl]phenyl]methyl]-1,2,4-triazol-3-one Trifluoroacetate]: the IC50 in experiment [1] (setting [6]) was 1.1 nM; in experiment [2] (1 mM putrescine substrate), > 100000 nM; in experiment [3] (1 mM benzylamine substrate), > 100000 nM; in experiment [4] (0.5 mM tyramine substrate) it was > 100000 nM.
With `CC(C)n1cc(-c2ccc(Cn3cnn(CC(CN)=C(F)F)c3=O)s2)cn1` [Example 184, 2-[2-(aminomethyl)-3,3-difluoro-allyl]-4-[[5-(1-isopropylpyrazol-4-yl)-2-thienyl]methyl]-1,2,4-triazol-3-one Trifluoroacetate], the concentration for half-maximal inhibition (IC50) is 2.6 nM in experiment [1] (setting [6]), 72000 nM in experiment [2] (1 mM putrescine substrate), 26000 nM in experiment [3] (1 mM benzylamine substrate) and > 100000 nM in experiment [4] (0.5 mM tyramine substrate).
